From USRE45471E1, “Pharmaceutical composition or combination drug” (Nanocarrier Co., Ltd., priority 2008, dated 2015)
Counter-ions that a name gives are not always drawn.

Test system: CDDP-resistant human lung cancer MOR/CPR cells
Test: In vitro cell growth inhibitory effect (WST method) on CDDP-resistant human lung cancer MOR/CPR cells
Format: cell-based
Conditions: gemcitabine hydrochloride alone, estimated
Method: The GI50 value in the case of gemcitabine hydrochloride alone was estimated to be about 10 μg/mL.
The cisplatin coordination compound obtained in Example 1 was prepared as a mannitol solution having a final concentration of 5% so as to contain 2.5 mg/mL in terms of CDDP. […] Furthermore, the concentrations or dosages of the cis-platin coordination compound are all indicated as the concentrations or dosages in terms of CDDP.

SMILES: Nc1ccn([C@@H]2O[C@H](CO)[C@@H](O)C2(F)F)c(=O)n1 [gemcitabine hydrochloride, Gemcitabine hydrochloride]
- GI50: ~10 µg/mL
